PMC4965148 (PLoS ONE, 2016)
“And” between values parts separate entries of the source, which are not always exact repeats. Equal entries are not always repeated. “Also recorded” adds a separate entry of the source. Where two headings read alike, the source gives them in different places.

How the values were obtained:
[1] = target: T1, human 5-HT3A receptors (Homo sapiens, UniProt P46098); test: biochemical
T1 sequence (P46098 24-478): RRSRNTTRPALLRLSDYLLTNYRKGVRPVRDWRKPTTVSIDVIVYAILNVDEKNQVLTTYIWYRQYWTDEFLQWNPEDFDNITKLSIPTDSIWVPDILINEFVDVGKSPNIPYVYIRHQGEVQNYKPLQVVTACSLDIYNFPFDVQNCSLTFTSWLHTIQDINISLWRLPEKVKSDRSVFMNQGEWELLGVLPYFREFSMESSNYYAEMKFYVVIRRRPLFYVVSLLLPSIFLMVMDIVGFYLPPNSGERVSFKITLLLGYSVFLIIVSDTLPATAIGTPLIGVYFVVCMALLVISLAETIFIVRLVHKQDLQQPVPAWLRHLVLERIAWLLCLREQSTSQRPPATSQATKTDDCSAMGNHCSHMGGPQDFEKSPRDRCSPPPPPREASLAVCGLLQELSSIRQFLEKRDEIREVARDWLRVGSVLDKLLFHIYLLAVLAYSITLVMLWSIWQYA

[2] = tested on: 5-HT1B; test: Selectivity panel, binding; details: read-out: % inhibition @ 10 µM, Rat
[3] = target: T2, rat α1β1δε nAChR (Rattus norvegicus, UniProt P09660+P25108+P25109+P25110); test: Ca2+ flux (FLIPR) agonist/antagonist assay; assay type: cell-based; details: FLIPR antagonist mode, EC90 ACh
T2 construct: expressed in transfected cells; host or cells: HEK293 (made by Bristol-Myers Squibb)

[4] = tested on: neonatal PCP treated rats; test: Rat neonatal PCP ID/ED set shifting; assay type: in vivo; details: for Number of trials to criteria, Complex discrimination / Number of trials to criteria, Simple discrimination: individual rats
Experimental: Male pups were treated with either 0.9% saline (sham) or PCP (20 mg/kg, sc) on post-natal days 7, 9 and 11 and then singly housed after weaning on postnatal days 21–25. All studies were conducted in adult animals (2–4 months of age) using methods adapted from. Rats were food-restricted (15g/rat/day) for 7 days prior to the initiation of training and throughout the remainder of the study. At the time of testing the average (± SEM) body weight ranged from 278 ± 6g to 296 ± 9g across the individual treatment groups. The animals then received 3 days of training during which they were handled, habituated to the test arena (5 min/day) and trained to dig in a ceramic pot for a food reward (Honey Nut Cheerios). The testing arena was constructed of black plastic (45 cm wide x 60 cm long x 45 cm tall) and divided into 3 compartments, i.e. a separate starting box and 2 choice boxes separated by an opaque wall. Each choice box contained a terracotta (4 inch diameter) pot, filled with digging media and with scented oil applied to the rim. At the beginning of each trial the animal was placed in the start box, the sliding door was opened and the subject was allowed to freely explore the two choice boxes. Both pots were initially baited with food until the subject reliably retrieved the food rewards from each. Thereafter, rats were trained to discriminate between either 2 distinct odors (stimulus dimension 1) or 2 distinct digging media (stimulus dimension 2) in order to correctly identify the baited pot. On the first trial only, rats were allowed to dig in both pots if an error was made (with the trial scored as an error trial). Thereafter animals were allowed to dig in one pot only per trial and were tested until the performance criterion of 6 consecutive correct choices was achieved. Each trial was limited to a maximum duration of 5 min and any subject not achieving performance criteria was eliminated from the study. On completion of a successful odor discrimination animals were then trained to successfully complete a simple discrimination trial based on digging media. Odor and digging media used in these initial training trials were not used again for ID/ED testing. […] All subjects were brought to the experimental laboratory at least 30 min prior to behavioral assessment. To determine ID/ED performance rats were tested for their ability to successfully complete a series of discriminations based on either odor or digging media. In all instances subjects were pre-assigned one stimulus dimension (i.e. digging media or odor) as the correct predictor of the food reward for the first series of discriminations. Only at the final stage i.e. the extra-dimensional shift (EDS) was the subject required to shift attention away from the assigned stimulus dimension to a different dimension (e.g. odor to digging media) to correctly identify the baited pot. The sequence of discriminations was a follows: simple discrimination (SD), compound discrimination (CD), intra-dimensional shift 1 (IDS1), intra-dimensional shift 2 (IDS2), intra-dimensional shift 2 reversal (IDS2rev) and EDS and examples of exemplars are shown in S1 Table. For all discrimination stages successful completion was defined as 6 consecutive correct trials at which point subjects progressed to the next phase of the task. The test session ended when either i) all discrimination phases were successfully completed or ii) testing had proceeded for 120 min. The average duration of a test session was 1 h and all subjects completed the ID/ED task within the allotted timeframe.

[5] = Plasma and brain concentrations after dosing; assay type: in vivo, rat; details: for concentration at 150 min / concentration at 30 min / Kp at 150 min: rat; for concentration at 150 min / concentration at 30 min: brain, read-out: Brain Mean ± SD; for concentration at 150 min / Kp at 150 min: oral; for concentration at 30 min: sc; for Kp at 150 min: brain/plasma
Experimental: At specified time points after dosing, the forebrain (for occupancy), the remaining hindbrain (for brain drug exposure) and plasma were collected, frozen in chilled isopentane and stored at -80°C until assayed.
In brief, 50 μL of the plasma sample was extracted by protein precipitation with 150 μL acetonitrile containing an internal standard and 5 μL of supernatant injected into the LC-MS/MS system. Analytes were separated by reversed phase chromatography and detection of each analyte was achieved through selected reaction monitoring mode of mass spectrometry.

[6] = 1 mg/kg, Rat MK-801 Set Shift (0.3-3 mg/kg study), 1 mg/kg po, 150 min
[7] = 3 mg/kg, Rat MK-801 Set Shift (0.3-3 mg/kg study), 3 mg/kg po, 150 min

T2 sequence (P25108 21-457): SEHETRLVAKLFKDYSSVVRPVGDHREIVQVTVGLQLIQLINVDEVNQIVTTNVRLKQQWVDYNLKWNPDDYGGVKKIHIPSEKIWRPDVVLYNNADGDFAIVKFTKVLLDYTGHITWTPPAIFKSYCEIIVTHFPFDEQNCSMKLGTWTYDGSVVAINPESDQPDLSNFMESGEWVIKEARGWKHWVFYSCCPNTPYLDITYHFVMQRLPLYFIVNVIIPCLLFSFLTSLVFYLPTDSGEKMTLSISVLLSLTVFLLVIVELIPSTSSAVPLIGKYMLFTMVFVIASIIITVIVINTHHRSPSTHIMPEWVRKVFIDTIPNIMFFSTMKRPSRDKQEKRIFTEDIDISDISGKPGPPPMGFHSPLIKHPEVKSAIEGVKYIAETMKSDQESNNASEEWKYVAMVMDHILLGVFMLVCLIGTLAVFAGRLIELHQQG
T2 sequence (P25109 24-501): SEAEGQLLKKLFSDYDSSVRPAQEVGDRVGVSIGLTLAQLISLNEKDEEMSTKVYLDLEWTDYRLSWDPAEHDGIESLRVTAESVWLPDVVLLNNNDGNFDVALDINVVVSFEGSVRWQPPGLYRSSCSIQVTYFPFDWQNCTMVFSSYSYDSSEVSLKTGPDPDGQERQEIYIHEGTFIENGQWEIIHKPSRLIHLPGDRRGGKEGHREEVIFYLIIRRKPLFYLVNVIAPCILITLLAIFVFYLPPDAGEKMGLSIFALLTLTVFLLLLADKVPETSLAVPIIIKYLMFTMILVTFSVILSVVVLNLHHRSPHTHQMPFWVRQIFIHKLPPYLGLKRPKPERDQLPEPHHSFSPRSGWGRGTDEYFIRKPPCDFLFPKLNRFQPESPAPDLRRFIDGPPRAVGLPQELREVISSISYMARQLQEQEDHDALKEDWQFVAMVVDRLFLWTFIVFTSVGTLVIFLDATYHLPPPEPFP
T2 sequence (P25110 22-517): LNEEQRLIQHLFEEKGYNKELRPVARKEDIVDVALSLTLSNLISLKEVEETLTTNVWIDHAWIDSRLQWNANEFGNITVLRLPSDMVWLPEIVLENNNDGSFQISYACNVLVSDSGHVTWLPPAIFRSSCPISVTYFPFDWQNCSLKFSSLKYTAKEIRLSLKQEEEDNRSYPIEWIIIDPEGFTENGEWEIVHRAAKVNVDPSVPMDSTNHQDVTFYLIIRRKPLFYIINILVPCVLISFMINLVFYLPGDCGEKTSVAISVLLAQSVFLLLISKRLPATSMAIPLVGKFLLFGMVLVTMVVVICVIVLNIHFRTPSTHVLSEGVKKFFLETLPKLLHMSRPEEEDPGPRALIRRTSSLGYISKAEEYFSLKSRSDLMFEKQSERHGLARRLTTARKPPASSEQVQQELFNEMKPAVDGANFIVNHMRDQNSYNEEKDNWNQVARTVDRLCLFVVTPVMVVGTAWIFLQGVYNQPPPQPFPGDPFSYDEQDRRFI
T2 sequence (P09660 21-494): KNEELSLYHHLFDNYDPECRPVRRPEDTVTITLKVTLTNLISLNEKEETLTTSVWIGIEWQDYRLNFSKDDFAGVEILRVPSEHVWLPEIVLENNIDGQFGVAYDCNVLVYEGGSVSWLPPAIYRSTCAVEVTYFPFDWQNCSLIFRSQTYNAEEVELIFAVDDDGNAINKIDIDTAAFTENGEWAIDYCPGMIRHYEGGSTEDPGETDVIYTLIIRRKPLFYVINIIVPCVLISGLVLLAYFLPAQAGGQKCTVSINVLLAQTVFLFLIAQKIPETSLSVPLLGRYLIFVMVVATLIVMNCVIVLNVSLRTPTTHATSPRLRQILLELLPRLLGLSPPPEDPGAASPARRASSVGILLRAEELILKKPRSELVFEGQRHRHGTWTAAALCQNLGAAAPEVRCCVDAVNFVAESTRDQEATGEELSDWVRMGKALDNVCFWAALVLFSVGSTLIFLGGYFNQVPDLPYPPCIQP
Sequence of 5-HT1B (P28222 whole entry): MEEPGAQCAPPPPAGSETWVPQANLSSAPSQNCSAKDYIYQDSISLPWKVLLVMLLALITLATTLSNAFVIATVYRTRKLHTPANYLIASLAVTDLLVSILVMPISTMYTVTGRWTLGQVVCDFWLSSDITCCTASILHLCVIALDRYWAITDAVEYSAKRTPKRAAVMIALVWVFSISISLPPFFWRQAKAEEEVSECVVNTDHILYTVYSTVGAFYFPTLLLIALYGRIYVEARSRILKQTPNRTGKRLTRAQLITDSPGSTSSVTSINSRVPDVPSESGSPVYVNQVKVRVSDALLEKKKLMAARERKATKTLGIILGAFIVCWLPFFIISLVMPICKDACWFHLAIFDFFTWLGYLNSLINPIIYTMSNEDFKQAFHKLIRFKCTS

In the case of `c1cn(-c2cc(NC3=NC[C@@]4(CN5CCC4CC5)O3)ncn2)cn1` [BMS-933043, (2R)-N-(6-(1H-imidazol-1-yl)-4-pyrimidinyl)-4'H-spiro[4-azabicyclo[2.2.2]octane-2,5'-[1,3]oxazol]-2'-amine], the Ki ([1]; HEK293/human 5-HT3A Ki (individual), individual determinations) is reported as 2.31 µM and 2.59 µM, the Ki ([1]; human 5-HT3A mean Ki ± SD) is reported as 2.45 µM and the inhibition at 10 µM [2] is reported as 0%. For the same molecule, the IC50 [3] was > 30 µM, the “EDS performance in neonatal PCP treated rats” value ([4]; 0.1–3 mg/kg po) was “significantly improved EDS performance; also recorded: completely reversed by all doses” and the “Number of trials to criteria, Complex discrimination” value (“Number … Complex discrimination” below) ([4]; PCP/0.1 mg/kg po, 0.1 mg/kg) was 6 (2×) and 16 and 7 (2×) and 8 (2×) and 21 and 19. For the same molecule, the “Number of trials to criteria, Simple discrimination” value (shortened to “Number … Simple discrimination”) ([4]; PCP/0.1 mg/kg po, 0.1 mg/kg) was 7 (3×) and 11 and 9 and 8 (2×) and 10 and 6, the “Number … Complex discrimination” value ([4]; PCP/0.3 mg/kg po, 0.3 mg/kg) was 18 and 10 (2×) and 7 and 6 (3×) and 8 and 16 and the “Number … Simple discrimination” value ([4]; PCP/0.3 mg/kg po, 0.3 mg/kg) was 10 and 15 and 13 and 8 and 9 and 12 and 6 and 19 and 7. For the same molecule, the “Number … Complex discrimination” value ([4]; PCP/1 mg/kg po, 1 mg/kg) was 6 (2×) and 11 (2×) and 7 (2×) and 13 and 14 (2×), the “Number … Simple discrimination” value ([4]; PCP/1 mg/kg po, 1 mg/kg) was 6 (3×) and 12 (2×) and 13 and 11 and 8 and 9 and the “Number … Complex discrimination” value ([4]; PCP/3 mg/kg po, 3 mg/kg) was 6 (2×) and 8 and 16 and 10 (2×) and 15 and 17 and 11. For the same molecule, the “Number … Simple discrimination” value ([4]; PCP/3 mg/kg po, 3 mg/kg) was 7 (4×) and 6 (2×) and 16 (2×) and 9, the “Active dose range, Neonatal PCP ID/ED” value ([4]; po) was 0.1–3.0 (po) mg/kg and the “longer time to complete the EDS in neonatal PCP treated rats” value ([4]; po) was “attenuated”. The “Brain Mean ± SD” value ([5]; Rat MK-801 Set Shift (0.3-3 mg/kg study), 0.30 mg/kg po, 150 min) was “< LLQ”, the concentration at 150 min [5, 6] was 13 ± 3 nM and the concentration at 150 min [5, 7] was 100 ± 39 nM. For the same molecule, the concentration at 150 min ([5]; 3 mg/kg, Rat MK-801 Set Shift (3-30 mg/kg study), 3 mg/kg po, 150 min) was 132 ± 17 nM, the concentration at 150 min ([5]; 10 mg/kg, Rat MK-801 Set Shift (3-30 mg/kg study), 10 mg/kg po, 150 min) was 533 ± 111 nM and the concentration at 150 min ([5]; 30 mg/kg, Rat MK-801 Set Shift (3-30 mg/kg study), 30 mg/kg po, 150 min) was 2220 nM. The concentration at 30 min ([5]; 0.03 mg/kg, Rat MMN, 0.03 mg/kg sc) was 13 nM, the concentration at 30 min ([5]; 0.3 mg/kg, Rat MMN, 0.30 mg/kg sc) was 13 ± 0.65 nM and the concentration at 30 min ([5]; 0.3 mg/kg, Rat N40 Gating, 0.30 mg/kg sc) was 21 ± 6 nM. For the same molecule, the concentration at 30 min ([5]; 0.56 mg/kg, Rat N40 Gating, 0.56 mg/kg sc) was 42 ± 10 nM, the concentration at 30 min ([5]; 1 mg/kg, Rat MMN, 1 mg/kg sc) was 74 ± 18 nM and the concentration at 30 min ([5]; 1 mg/kg, Rat N40 Gating, 1 mg/kg sc) was 97 ± 14 nM. The concentration at 30 min ([5]; 3 mg/kg, Rat MMN, 3 mg/kg sc) was 378 ± 161 nM, the concentration at 30 min ([5]; 3 mg/kg, Rat N40 Gating, 3 mg/kg sc) was 372 ± 33 nM and the Kp at 150 min [5, 6] was 0.25. For the same molecule, the Kp at 150 min [5, 7] was 0.24.
